From patent US9073905B2, “Rock inhibitors” (Amakem NV, priority 2011, dated 2015)
“Also recorded” adds a separate entry of the source.

Assays:
ROCK2 = ROCK2 (Homo sapiens, UniProt O75116); test: Kinase inhibition (ROCKI & ROCKII), radiometric 33P-ATP biochemical assay
Protocol: On-target activity against ROCK was measured in a biochemical assay, using the following reagents: Base Reaction buffer; 20 mM Hepes (pH 7.5), 10 mM MgCl2, 1 mM EGTA, 0.02% Brij35, 0.02 mg/ml BSA, 0.1 mM Na3VO4, 2 mM DTT, 1% DMSO. Required cofactors are added individually to each kinase reaction. The reaction procedure first involved the preparation of a peptide substrate in a freshly prepared reaction buffer. Required cofactors were then added to the substrate solution. ROCK (1 nM final concentration) was then delivered to the substrate solution. After gentle mix, DMSO solutions of the test compounds were added to the enzyme. Substrate mix ^33P-ATP (specific activity 0.01 μCi/μl final) was then delivered into the reaction mixture to initiate the reaction. The kinase reaction was incubated for 120 min. at room temperature. Reactions were then spotted onto P81 ion exchange paper (Whatman #3698-915). Filters were washed extensively in 0.1% Phosphoric acid. A radiometric count was then performed and IC50 values were subsequently determined.
The IC50 values obtained (in accordance with the protocol set forth above) are represented as follows: “+++” means IC50 below 0.1 μM, “++” means IC50 between 0.1 μM and 1 μM; “+” means IC50 between 1 and 10 μM and “ND” means “not determined yet”.

[1] = Stability towards drug metabolizing enzymes in lung S9; assay type: in vitro ADME, human; conditions: comparison table; for half-life at 1 μM: human, lung S9 (from smokers), read-out: t½ lung S9
Protocol: A 1 μM solution of the ROCK inhibitors is incubated with a reaction mixture containing lung S9 (from smokers) as well as the cofactors NADPH, UDPGA, PAPS and GSH. Samples are collected at 0, 15, 30 and 60 minutes post incubation. Negative control samples incubated with ROCK inhibitors and S9 fraction in the absence of cofactors are run in parallel. By using LC-MS/MS analysis, the percent of ROCK compounds remaining at each time point, the metabolic half-life of the ROCK compounds (expressed in minutes) and the metabolic half-life of the control compounds are determined.

[2] = Stability assay in rabbit aqueous humor; assay type: in vitro ADME; conditions: for half-life at 1 μM: rabbit, read-out: t½ AH
Protocol: Compounds are incubated at a concentration of 1 μM in rabbit aqueous humor (AH). Samples are taken at fixed time points and the remnant of compound is determined by LC-MS/MS after protein precipitation. Half life is expressed in minutes.

[3] = Stability in plasma, species not stated; assay type: in vitro ADME; conditions: for half-life at 1 μM: read-out: t½ Plasma
Protocol: (§1) Compounds are incubated at a concentration of 1 μM in rat (mice or rabbit) or human plasma. Samples are taken at fixed time points and the remnant of compound is determined by LC-MS/MS after protein precipitation. Half life is expressed in minutes.

[4] = tested on: MLC-T18/S19 phosphorylation; test: Myosin light chain phosphorylation assay (ELISA) in A7r5 cells; assay type: cell-based, Rat; conditions: for EC50: MLC-T18/S19 phosphorylation, A7r5 cells, serum-free medium; for functional activity in the MLC phosphorylation assay (in words): FIG. 1
Protocol: Rat smooth muscle cell line A7r5 is used. The endogenous expression of ROCK esults in a constitutive phosphorylation of the regulatory myosin light chain at T18/S19. A7r5 cells were plated in DMEM supplemented with 10% FCS in multiwall cell culture plates. After serum starvation overnight, cells were incubated with compounds in serum-free medium.
Quantification of MLC-T18/S19 phosphorylation is assesses in 96 well-plates via ELISA using a phspho-MLC-T18/S19 specific antibody and a secondary detection antibody. Raw data were converted into percent substrate phosphorylation relative to high controls, which were set to 100%.
EC50 values were determined using GraphPad Prism 5.01 software using a nonlinear regression curve fit with variable hill slope.
The EC50 values obtained (in accordance with the protocols set forth above) are represented as follows: “+++” means EC50 below 0.3 μM, “++” means EC50 between 0.3 μM and 1 μM; “+” means EC50 between 1 and 10 μM and “−” means EC50>10 μM.

[5] = Stability assay in human plasma; assay type: in vitro ADME; conditions: 1 μM compound, LC-MS/MS, read-out: t½ human plasma
Protocol: as §1

[6] = aqueous humor, comparison table, aqueous humor
[7] = comparison table, plasma species not given
[8] = ROCK 1 nM, 120 min at room temperature
[9] = aqueous humor, 1 μM in rabbit aqueous humor

Chain of ROCK2 (O75116 whole entry, species assumed): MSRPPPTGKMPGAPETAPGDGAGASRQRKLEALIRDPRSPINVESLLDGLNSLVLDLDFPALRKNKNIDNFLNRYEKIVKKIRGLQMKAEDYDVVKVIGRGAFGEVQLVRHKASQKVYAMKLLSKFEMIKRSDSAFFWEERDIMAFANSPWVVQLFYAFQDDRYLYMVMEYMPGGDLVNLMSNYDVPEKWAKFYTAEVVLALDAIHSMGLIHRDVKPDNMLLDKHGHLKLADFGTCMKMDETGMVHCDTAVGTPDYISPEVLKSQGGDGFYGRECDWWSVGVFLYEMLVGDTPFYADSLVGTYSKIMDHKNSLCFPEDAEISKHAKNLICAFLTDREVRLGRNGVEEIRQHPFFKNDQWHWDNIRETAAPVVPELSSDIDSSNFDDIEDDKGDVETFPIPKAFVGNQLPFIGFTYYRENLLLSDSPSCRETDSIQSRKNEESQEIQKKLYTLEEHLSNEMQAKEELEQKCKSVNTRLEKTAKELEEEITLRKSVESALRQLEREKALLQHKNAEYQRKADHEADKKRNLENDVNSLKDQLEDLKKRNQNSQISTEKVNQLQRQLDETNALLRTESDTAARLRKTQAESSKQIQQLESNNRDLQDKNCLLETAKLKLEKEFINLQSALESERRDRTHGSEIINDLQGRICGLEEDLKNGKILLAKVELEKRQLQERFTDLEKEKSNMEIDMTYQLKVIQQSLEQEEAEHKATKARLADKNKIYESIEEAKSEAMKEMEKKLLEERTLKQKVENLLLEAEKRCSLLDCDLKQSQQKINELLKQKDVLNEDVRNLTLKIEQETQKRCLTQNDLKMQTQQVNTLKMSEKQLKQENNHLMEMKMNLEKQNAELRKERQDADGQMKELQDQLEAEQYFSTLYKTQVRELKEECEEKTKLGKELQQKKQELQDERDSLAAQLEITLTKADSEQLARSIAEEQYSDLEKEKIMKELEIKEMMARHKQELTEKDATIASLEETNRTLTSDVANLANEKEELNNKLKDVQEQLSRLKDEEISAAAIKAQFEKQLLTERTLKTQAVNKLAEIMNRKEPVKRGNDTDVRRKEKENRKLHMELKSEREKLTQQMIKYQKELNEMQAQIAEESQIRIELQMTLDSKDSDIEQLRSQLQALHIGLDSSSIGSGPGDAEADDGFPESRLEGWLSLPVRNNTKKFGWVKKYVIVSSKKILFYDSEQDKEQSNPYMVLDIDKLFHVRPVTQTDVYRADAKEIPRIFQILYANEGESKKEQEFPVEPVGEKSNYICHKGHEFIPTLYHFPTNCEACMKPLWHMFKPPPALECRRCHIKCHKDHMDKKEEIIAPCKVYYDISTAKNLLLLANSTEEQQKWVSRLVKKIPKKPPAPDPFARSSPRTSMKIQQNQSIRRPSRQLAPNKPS

CCOC(=O)COc1cccc(CN2CCCC(Nc3ccc4[nH]ncc4c3)C2)c1 (racemic) [Compound 1.060, reference compound]
IC50 (ROCK2; comparison table): 7 nM | t½ lung S9 [1]: <5 min | half-life at 1 μM [1]: < 5 min | t½ AH ([2]; comparison table, aqueous humor): <5 min | half-life at 1 μM [2, 6]: < 5 min | t½ Plasma [3, 7]: <5 min | half-life at 1 μM [3, 7]: < 5 min

CS(=O)(=O)Nc1cccc(CN2CCCC(Nc3ccc4[nH]ncc4c3)C2)c1 (centres unmarked) [Compound 1.091, reference compound]
IC50 (ROCK2; comparison table): 2.4 nM | IC50 ([4]; Rattus norvegicus, A7R5, comparison table, MLC phosphorylation, read-out: IC50 MLC-PP): 110 nM | half-life at 1 μM [1]: > 240 min | half-life at 1 μM [2, 6]: > 120 min | half-life at 1 μM [3, 7]: > 120 min | degradation in the tested media, including plasma (in words) ([3]; plasma, aqueous humor, lung S9): not degraded at a significant rate

O=C(OCC1CC1)c1cccc(CN2CCCC(Nc3cccc4cnccc34)C2)c1 (centres unmarked) [Compound 1]
IC50 (ROCK2; [8]): < 100 nM | half-life at 1 μM [5]: 49 min

O=C(OCc1ccccc1)c1cccc(CN2CCCC(Nc3cccc4cnccc34)C2)c1 (centres unmarked) [Compound 2]
IC50 (ROCK2; [8]): 100 to 1000 nM | half-life at 1 μM [5]: 53 min

O=C(Oc1ccccc1)c1cccc(CN2CCCC(Nc3cccc4cnccc34)C2)c1 (centres unmarked) [Compound 3]
IC50 (ROCK2; [8]): 100 to 1000 nM | half-life at 1 μM [5]: 19 min

CCCOC(=O)Cc1cccc(CN2CCCC(Nc3ccc4[nH]ncc4c3)C2)c1 (centres unmarked) [Compound 4]
IC50 (ROCK2; [8]): < 100 nM

O=C(OCCO)c1cccc(CN2CCCC(Nc3cccc4cnccc34)C2)c1 (centres unmarked) [Compound 5]
IC50 (ROCK2; [8]): < 100 nM

CCSC(=O)c1cccc(CN2CCCC(Nc3cccc4cnccc34)C2)c1 (centres unmarked) [Compound 6]
IC50 (ROCK2; [8]): 100 to 1000 nM

COC(=O)c1cccc(CN2CCCC(Nc3ccc4[nH]ncc4c3)C2)c1 (centres unmarked) [Compound 7]
IC50 (ROCK2; [8]): < 100 nM | EC50 ([4]; Rattus norvegicus): 1000 to 10000 nM

COC(=O)c1cccc(CN2CCCC(Nc3cccc4cnccc34)C2)c1 (centres unmarked) [Compound 8]
IC50 (ROCK2; [8]): 100 to 1000 nM

CCCOC(=O)c1cccc(CN2CCCC(Nc3ccc4[nH]ncc4c3)C2)c1 (centres unmarked) [Compound 9]
IC50 (ROCK2; [8]): < 100 nM | EC50 ([4]; Rattus norvegicus): 300 to 1000 nM

O=C(Oc1ccccc1)c1cccc(CN2CCCC(Nc3ccc4[nH]ncc4c3)C2)c1 (centres unmarked) [Compound 10]
IC50 (ROCK2; [8]): < 100 nM | half-life at 1 μM [5]: < 5 min

COC(=O)Cc1cccc(CN2CCCC(Nc3ccc4[nH]ncc4c3)C2)c1 (centres unmarked) [Compound 11]
IC50 (ROCK2; [8]): < 100 nM

COCCOC(=O)Cc1cccc(CN2CCCC(Nc3ccc4[nH]ncc4c3)C2)c1 (centres unmarked) [Compound 12]
IC50 (ROCK2; [8]): < 100 nM

CCCOC(=O)c1cccc(CN2CCCC(Nc3cccc4cnccc34)C2)c1 (centres unmarked) [Compound 13]
IC50 (ROCK2; [8]): 100 to 1000 nM

O=C(OCC1CCCO1)c1cccc(CN2CCCC(Nc3cccc4cnccc34)C2)c1 (centres unmarked) [Compound 15]
IC50 (ROCK2; [8]): < 100 nM | EC50 ([4]; Rattus norvegicus): 1000 to 10000 nM | half-life at 1 μM [5]: 5 min

CCSC(=O)c1cccc(CN2CCCC(Nc3ccc4[nH]ncc4c3)C2)c1 (centres unmarked) [Compound 16]
IC50 (ROCK2; [8]): < 100 nM

O=C(OCC1CC1)c1cccc(CN2CCCC(Nc3ccc4[nH]ncc4c3)C2)c1 (centres unmarked) [Compound 17]
IC50 (ROCK2; [8]): < 100 nM | inhibitory activity against ROCK (in words) (ROCK2; summary of point C1.1): strong inhibitory activity | functional activity in the MLC phosphorylation assay (in words) [4]: display functional activity | EC50 ([4]; Rattus norvegicus): 300 to 1000 nM | half-life at 1 μM [5]: 25 min | half-life at 1 μM [2, 9]: > 120 min | half-life in aqueous humor compared with plasma (in words) ([2]; text summary of point C.2.3): significantly longer half-life in aqueous humor than in plasma | half life in plasma (in words) ([3]; point C.2.1): short half life

O=C(OCc1ccccc1)c1cccc(CN2CCCC(Nc3ccc4[nH]ncc4c3)C2)c1 (centres unmarked) [Compound 18]
IC50 (ROCK2; [8]): < 100 nM | half-life at 1 μM [5]: 26 min

O=C(OCCO)c1cccc(CN2CCCC(Nc3ccc4[nH]ncc4c3)C2)c1 (centres unmarked) [Compound 19]
IC50 (ROCK2; [8]): < 100 nM | EC50 ([4]; Rattus norvegicus): 300 to 1000 nM

COC(=O)c1cccc(CN2CCC(Nc3cccc4cnccc34)C2)c1 (centres unmarked) [Compound 20]
IC50 (ROCK2; [8]): < 100 nM

CCOC(=O)c1cccc(CN2CCC(Nc3cccc4cnccc34)C2)c1 (centres unmarked) [Compound 21]
IC50 (ROCK2; [8]): 100 to 1000 nM

COC(=O)c1ccc(CN2CCCC(Nc3ccc4[nH]ncc4c3)C2)s1 (centres unmarked) [Compound 23]
IC50 (ROCK2; [8]): < 100 nM

COC(=O)c1ccc(CN2CCCC(Nc3ccc4[nH]ncc4c3)C2)[nH]1 (centres unmarked) [Compound 24]
IC50 (ROCK2; [8]): < 100 nM

COC(=O)c1ccc(NC(=O)c2cccc(CN3CCCC(Nc4cccc5cnccc45)C3)c2)cc1 (centres unmarked) [Compound 25]
half-life at 1 μM [2, 9]: > 120 min

O=C1OCC(CCNC(=O)c2cccc(CN3CCCC(Nc4cccc5cnccc45)C3)c2)O1 (centres unmarked) [Compound 27]
IC50 (ROCK2; [8]): < 100 nM | half-life at 1 μM [5]: 4 min | half-life at 1 μM [2, 9]: 111 min

O=C1OCC(CCNC(=O)c2cccc(CN3CCCC(Nc4ccc5[nH]ncc5c4)C3)c2)O1 (centres unmarked) [Compound 29]
IC50 (ROCK2; [8]): < 100 nM | half-life at 1 μM [5]: < 5 min | half-life at 1 μM [2, 9]: > 120 min

COC(=O)c1cccc(NC(=O)c2cccc(CN3CCCC(Nc4cccc5cnccc45)C3)c2)c1 (centres unmarked) [Compound 30]
IC50 (ROCK2; [8]): < 100 nM | half-life at 1 μM [2, 9]: > 120 min

COC(=O)Cc1cccc(NC(=O)c2cccc(CN3CCCC(Nc4cccc5cnccc45)C3)c2)c1 (centres unmarked) [Compound 31]
half-life at 1 μM [5]: < 5 min | half-life at 1 μM [2, 9]: > 120 min

COC(=O)Cc1cccc(NC(=O)c2cccc(CN3CCC(Nc4cccc5cnccc45)C3)c2)c1 (centres unmarked) [Compound 33]
IC50 (ROCK2; [8]): < 100 nM | half-life at 1 μM [5]: < 4 min | half-life at 1 μM [2, 9]: 59 min

COC(=O)Cc1ccc(NC(=O)c2cccc(CN3CCCC(Nc4cccc5cnccc45)C3)c2)cc1 (centres unmarked) [Compound 34]
IC50 (ROCK2; [8]): < 100 nM | half-life at 1 μM [2, 9]: > 120 min

COC(=O)c1ccc(NC(=O)c2cccc(CN3CCC(Nc4cccc5cnccc45)C3)c2)cc1 (centres unmarked) [Compound 35]
IC50 (ROCK2; [8]): < 100 nM | half-life at 1 μM [2, 9]: > 120 min

COC(=O)Cc1ccc(NC(=O)c2cccc(CN3CCC(Nc4cccc5cnccc45)C3)c2)cc1 (centres unmarked) [Compound 36]
IC50 (ROCK2; [8]): < 100 nM | half-life at 1 μM [5]: 24 min | half-life at 1 μM [2, 9]: > 120 min

COC(=O)c1cccc(NC(=O)c2cccc(CN3CCCC(Nc4ccc5[nH]ncc5c4)C3)c2)c1 (centres unmarked) [Compound 37]
IC50 (ROCK2; [8]): < 100 nM | half-life at 1 μM [2, 9]: > 120 min

COC(=O)Cc1cccc(NC(=O)c2cccc(CN3CCCC(Nc4ccc5[nH]ncc5c4)C3)c2)c1 (centres unmarked) [Compound 38]
half-life at 1 μM [2, 9]: > 120 min

COC(=O)c1ccc(NC(=O)c2cccc(CN3CCCC(Nc4ccc5[nH]ncc5c4)C3)c2)cc1 (centres unmarked) [Compound 39]
half-life at 1 μM [2, 9]: > 120 min

COC(=O)Cc1ccc(NC(=O)c2cccc(CN3CCCC(Nc4ccc5[nH]ncc5c4)C3)c2)cc1 (centres unmarked) [Compound 40]
half-life at 1 μM [5]: 40 min | half-life at 1 μM [2, 9]: > 120 min

COC(=O)c1cccc(NC(=O)Cc2cccc(CN3CCCC(Nc4ccc5[nH]ncc5c4)C3)c2)c1 (centres unmarked) [Compound 41]
IC50 (ROCK2; [8]): < 100 nM | half-life at 1 μM [5]: 10 min | half-life at 1 μM [2, 9]: > 120 min

COC(=O)Cc1cccc(NC(=O)Cc2cccc(CN3CCCC(Nc4ccc5[nH]ncc5c4)C3)c2)c1 (centres unmarked) [Compound 42]
IC50 (ROCK2; [8]): < 100 nM | half-life at 1 μM [5]: < 5 min

COC(=O)c1ccc(NC(=O)Cc2cccc(CN3CCCC(Nc4ccc5[nH]ncc5c4)C3)c2)cc1 (centres unmarked) [Compound 43]
half-life at 1 μM [2, 9]: > 120 min

COC(=O)Cc1ccc(NC(=O)Cc2cccc(CN3CCCC(Nc4ccc5[nH]ncc5c4)C3)c2)cc1 (centres unmarked) [Compound 44]
IC50 (ROCK2; [8]): < 100 nM | half-life at 1 μM [5]: < 5 min

O=C(O)c1cccc(CN2CCCC(Nc3ccc4[nH]ncc4c3)C2)c1 (centres unmarked) [Met1, 3-({3-[(1H-indazol-5-yl)amino]piperidin-1-yl}methyl)benzoic acid]
functional activity in the MLC phosphorylation assay (in words) [4]: functionally inactive compound; also recorded: devoid of functional activity | EC50 ([4]; Rattus norvegicus): > 10000 nM
